Each structure is given as a SMILES string.

As a reminder, the melting point is the temperature of the solid-liquid transition. Molecule `O=[N+]([O-])C=C1SCCCN1S(=O)(=O)CCCCl` registered a melting point of 99 °C.
The value for `CN1CCN(c2ncnc3nc(-c4ccncc4)[nH]c23)CC1` was 333 to 335 °C; that for `CCCOc1ccccc1-c1ccoc1C(=O)NNC(=O)c1ccc(O)c(C#N)c1` was 114 to 117 °C.
The molecule `COc1ccc(-c2cc(N3CCCCC3)c(C#N)c3c2-c2ccccc2C3)cc1` had a melting point of 202 to 204 °C.
Take `C=CCOC(=O)C(CCn1c(=O)c2c(ncn2C)n(C)c1=O)N(C)S(=O)(=O)c1ccc(Oc2ccccc2)cc1` (centres undefined): the melting point lay within 207 to 209 °C.
`CCOC(=O)C(=O)CC(=O)c1cn(Cc2ccc(Cl)cc2)c2ccccc2c1=O`: the melting point lay in the range of 174 to 176 °C.
The value for `Cc1c(C(=O)Nc2ccc(N3CCCC3)c(C#N)c2)cnn1-c1ccc(Cl)cc1` was 205 °C.
In the case of `CN(C)C(=O)c1ccc2c(c1)C(=NNc1ccc(S(N)(=O)=O)cc1)C(=O)N2`, the melting point is above 230 °C.
Molecule `N#CC(Cl)=C(Cl)S(=O)(=O)c1cc(Cl)ccc1Cl` showed a melting point of 84 °C.
Molecule `CCCc1cc(Cl)c2oc(-c3ccccc3)c(C)c2c1O` had a melting point of 102 to 104 °C.
`CCONC(=O)C(=O)NN` had a melting point of 182 °C.
For `CC(=O)c1ccc(OCC(C)(O)C(=O)Nc2ccc([N+](=O)[O-])c(C)c2)cc1` (centres undefined), the melting point lay within 153 to 155 °C.
As for `COC(=O)N=C1SCCN1Cc1ccc(Cl)nc1`, the figure is 128 to 130 °C; as for `O=C(O)Cc1ccccc1SCc1ccc(Cl)cc1`, 149 to 151 °C; as for `COc1nc(C)nc(NC(=O)NS(=O)(=O)C(C)S(=O)(=O)N2CCCC2)n1` (centres undefined), 136 to 137 °C.
For the molecule `CC(C)c1n[nH]c2c(NCc3ccccc3O)ncnc12`, the melting point lay in the range of 214 to 217 °C.
As for `O=C(c1ccccc1)C(Br)(Br)Br`, the melting point was in the range of 63 to 64 °C.
As for `C=CCc1c(O)ccc2oc(C(=O)c3ccc(OC)cc3)c(C)c12`, the figure is 155 to 158 °C; as for `Cc1cc(C2=NOC(c3cc(Cl)cc(Cl)c3)(C(F)(F)F)C2)ccc1F` (centres undefined), 72 to 74 °C.
The value for `COc1ccc2cc(NC(=O)OC(C)(C)C)ccc2c1` was 124 to 127 °C; that for `CC(C)(CNc1ccc(C2=NNC(=O)CC2)cc1)NCC(O)COc1cc(Cl)ccc1C#N` (centres undefined) was 160 to 162 °C; that for `COC(=O)c1ccccc1/C=C/CO` was 75 to 80 °C.
Molecule `CC(C)(C)c1ccc(C2CC(=O)c3ccccc3O2)cc1` (centres undefined) yielded a melting point of 103 to 104 °C.
With `CC(=O)Nc1c(C(=O)c2cnccn2)[nH]c2cc(Cl)ccc12`, the melting point was 269 to 271 °C.
The value for `N#CC1(SCc2ccccc2)C2CC3CC(C2)CC1C3` (centres undefined) was 73 to 75 °C; that for `Cc1c(Cl)cccc1N=c1scc(-c2ccc(Cl)c(S(=O)(=O)N(C)C)c2)n1C` was 144 to 146 °C.
Regarding `CC(C)=CCc1c(C)cc(O)cc1C`, the melting point lay in the range of 64 to 65 °C.
Regarding `O=c1[nH]nc(COc2ccccc2)s1`, the melting point was in the range of 104 to 105 °C.
As for `Cc1c(CC(=O)O)c(=O)oc2cc(C3OC(CO)C(O)C(O)C3O)ccc12` (centres undefined), the figure is 186 to 188 °C.
In the case of `C1=c2ccccc2=C2N=c3ccc4ccccc4c3=C2C1`, the melting point turned out to be 238 °C.
The value for `C=CCOc1cc2c(cc1CC=C)CCC(=O)N2CC=C(C)C` was 20 to 28 °C.
The value for `COC(=O)c1ccc2c(c1)CN(C(=O)c1ccc(-c3ccccc3)cc1)C2` was 172 to 180 °C; that for `CCCCC1=NC2(CCCC2)C(=O)N1Cc1ccc(-c2ccccc2S(=O)(=O)Nc2onc(C)c2C)c(CN2CCC(C)(C)C2=O)c1` was 104 to 110 °C.
In turn, `CC(C)(C)OC(=O)CCc1ccc(-c2nc(=O)c3ccccc3s2)nc1` gave a melting point of 160 to 161 °C.
In turn, `COC(=O)c1cc(=O)n(-c2c(Cl)cc(C(F)(F)F)cc2Cl)[nH]1` had a melting point of 245 to 246 °C.
Molecule `Cc1cc(Br)cc(C=O)c1F` came in with a melting point of 48 to 50 °C.
The value for `CCCCC[C@@H](C)C[C@H](CN)CC(=O)O` was 174 to 175 °C; that for `COc1ccc(-n2cnc3ccc(-c4nnc(CCc5cccc(F)c5)o4)cc32)cc1` was 145 to 147 °C; that for `COc1cc(C2CCN(CCF)CC2)ccc1Nc1ncc2ccc(-c3ccccc3N(C)S(C)(=O)=O)n2n1` was 90 to 97 °C.
`COc1ccccc1-n1c(=O)[nH]c2c(C(N)=O)nc(Nc3cccc(O)c3)nc21` displayed a melting point of 190 to 191 °C.
`C=CS(=O)(=O)Nc1c(C)cc(C)cc1C` had a melting point of 117 to 120 °C.
`Oc1nc2cc(F)ccc2n2c(C(F)(F)F)nnc12` displayed a melting point of 298 to 302 °C.
In the case of `CC1(C)Oc2ccc(OCc3ccccc3)cc2C2OC21` (centres undefined), the melting point was in the range of 70 to 72 °C.
The molecule `CC(C)(C)C1=CC(O)(C(F)(F)F)C(=O)C(C(C)(C)C)=C1` (centres undefined) showed a melting point of 58 to 61 °C.
For the molecule `CN(C)CCNC(=O)c1nnc(-c2ccccc2)cc1-c1cccc([N+](=O)[O-])c1`, the melting point is 157 to 158 °C.
As for `O=C1CCCc2ccc(OCc3ccc4ccccc4n3)cc21`, the figure is 98.5 to 102 °C; as for `CC1(C(F)(F)F)C=C(C(=O)NCCC#N)c2cc([N+](=O)[O-])ccc2O1` (centres undefined), 191 to 193 °C; as for `CC(=O)CC(=O)Nc1c(C(=O)c2ccccc2)[nH]c2cc(Cl)ccc12`, 170 to 173 °C.
As for `COC12CC(CCOC(=O)c3ccc[nH]3)CN(C)C1Cc1cn(C)c3cccc2c13` (centres undefined), the melting point is 148 to 149 °C.
The molecule `Cc1ccc(-c2ccccc2C#N)nc1` had a melting point of 80 to 81 °C.
As for `COCCOc1ccc(CCCOC(=O)NS(N)(=O)=O)c(Oc2ncc(Cl)cc2Cl)c1`, the figure is 153 to 154 °C; as for `Cc1cc(NC(=O)c2c(Cl)cccc2Cl)c2nccc(NNC(C)C)c2c1`, 154 to 156 °C; as for `Cc1cc(-n2ccnc2)c2cccc(OCc3c(Cl)ccc(S(=O)(=O)N4CCC[C@H]4C(=O)NCC4CCN(CCC(=O)O)CC4)c3Cl)c2n1`, 140 °C.
The value for `Nc1ccc(Cl)cc1C(=O)NCCCn1cncn1` was 116 to 118 °C; that for `CCCCc1nc2c(C)c(Cl)cc(C(=O)O)c2n1Cc1ccc(C(=O)O)cc1` was 293 to 294 °C.
As for `CC1=NN=C(c2ccc(NC(=O)CN(C)C)cc2)c2cc3c(cc2C1)OCO3`, the figure is 211 to 213 °C; as for `CCN(CC)CCCNC(=O)c1ccc(S(N)(=O)=O)cc1`, 122 to 123 °C; as for `CC12CCC3c4ccc(C(=O)O)cc4CCC3C1CCC2C(=O)CCc1ccc(C(=O)O)cc1` (centres undefined), 285 to 290 °C.
Molecule `Cn1ncnc1COc1nn2c(-c3ccccc3F)nncc2c1-c1cc(F)cc(F)c1` returned a melting point of 171 to 173 °C.
`CCCNC(=O)C(C)Cc1ccc2cccc(Cc3ccc(C(=O)NS(=O)(=O)c4ccccc4)cc3OC)c2c1` (centres undefined): the melting point lay in the range of 214 to 218 °C.
As for `Cc1oc(-c2cccc(-c3nc(CC(=O)OCc4ccccc4)c(C)o3)c2)nc1CC(=O)OCc1ccccc1`, the figure is 98 to 100 °C; as for `Fc1cccc2sc(S)nc12`, 180 °C.
For the molecule `CCn1cc(C(=O)Nc2ccccc2)c(=O)n2c3ccccc3nc12`, the melting point lay within 268 to 270 °C.
For the molecule `CC(=O)c1ccc(OCCCCCOc2ccc3c(=O)cc(C(=O)O)oc3c2)cc1O`, the melting point fell in the range of 226 to 228 °C.
With `CCC(=O)OCc1nc(-c2ccc(OC)c(OC)c2)c2cc(OC)c(OC)cc2c1CC`, the melting point is 125 to 127 °C.
With `CC(C#Cc1cccc(C2=NOC(c3ccc(F)cc3)C2)c1)N(O)C(N)=O` (centres undefined), the melting point was 132 to 133 °C.
As for `CCCC(=O)NCc1cccc2c1CN(C1CCC(=O)NC1=O)C2=O` (centres undefined), the figure is 244 to 246 °C; as for `CCOCc1nc2c(N)nc(C)c(C)c2n1NCc1cccnc1`, 147 to 149 °C.
The value for `O=C(OCCl)c1c(Cl)cccc1Cl` was 70 to 72 °C; that for `CC(O)Cn1cc(-c2ccccc2)c2ccccc2c1=O` (centres undefined) was 162 °C.
The value for `Cc1c(C(=O)O)ccc2c1[nH]c1ccccc12` was above 240 °C; that for `COc1nc(C(F)(F)F)cc(=O)n1-c1ccc(Cl)c(OC(C)C)c1` was 55 to 58 °C; that for `CCOc1cc2c(cc1OCC)CCCC(C(=O)N1CCN(C(=O)c3cc(OC)c(OC)c(OC)c3)CC1)=C2` was 183 to 185 °C.
`CCCOc1ccccc1-c1nc2nc(SC)nnc2c(=O)[nH]1` came in with a melting point of 247 to 249 °C.
With `CCOC(=O)c1nc(-c2cccc(Br)c2)ns1`, the melting point is 87 to 90 °C.
`CC=NOCc1nc2c(N)nc3ccccc3c2n1CC(C)C` gave a melting point of 155 to 156 °C.
Consider `O=C(Nc1nc2ccccc2c(=O)n1-c1ccccc1)c1ccccc1`, for which the melting point lay within 185 to 188 °C.
`Cc1cscc1NC(=S)Nc1cccc(Cl)c1N`: the melting point lay within 298 to 305 °C.
In turn, `FCc1cccc(C#CCCc2ccc3ccccc3n2)n1` had a melting point of 70.2 to 74.3 °C.
Molecule `Cc1cccc(C)c1NC(=O)CN1CCCC1=O` returned a melting point of 153 to 154 °C.
As for `CCOC(=O)CCNC(=O)CN1CCOc2ccc(NC(=O)NCc3ccccc3)cc2C1=O`, the figure is 70 to 75 °C.
As for `Nc1nc2c(ncn2Cc2ccoc2)c(=O)[nH]1`, the figure is 308 to 310 °C; as for `COc1ccc(C(CN(C)C)c2nnc3n2-c2ccc(Cl)cc2C(c2ccccc2)=NC3)cc1` (centres undefined), 138 to 142 °C; as for `O=C(O)c1ccc(C#Cc2cc(C#Cc3ccc(C(=O)O)cc3)cc(C#Cc3ccc(C(=O)O)cc3)c2)cc1`, 218 °C.
With `c1cncc(-c2cncnc2)c1`, the melting point lay within 101 to 103 °C.
As for `CCC1CCC(=O)C=C1c1ccc(OCC(=O)O)cc1Cl` (centres undefined), the figure is 138 to 140 °C; as for `O=C(NC(SC(=O)c1ccccc1)C(=O)N1CCCC1C(=O)O)c1ccccc1` (centres undefined), 202 to 205 °C.
As for `Nc1nc(N)nc(-c2ccc(NS(=O)(=O)c3cccc4ccccc34)cc2)n1`, the figure is above 250 °C.
As for `CN1C(=O)C2(CCN(CCCC(=O)c3ccc(F)cc3)CC2)c2ccccc21`, the figure is 95 to 96.5 °C.

These data come from a melting point compilation (Tetko et al.; mined from patent text by program, amines drawn as free bases though some values may be those of a salt).
